From patent US6346535B1, “Fungicidal mixtures” (American Cyanamid Company, priority 1999, dated 2002) come the findings set out here.

What all share (type): in vivo
Assay [1] has as its system Erysiphe cichoracearum on cucumbers. Put plainly: Greenhouse trial, 4 day residual, Erysiphe cichoracearum on cucumbers. The text has this:
(§1) The fungicides are applied in single treatments, or in a combination comprising a benzophenone of formula I and a compound selected from (A) through (E) as defined above. The compounds are applied in form of an aqueous spray mix obtained from a concentrated formulation or the technical material.
(§2) 1. Seed is planted in 6 cm diameter plastic pots and maintained in the greenhouse.
(§3) 2. When the primary leaf is fully expanded (in the case of cereals) or several leaves are present (in the case of dicots), formulated test compounds are sprayed with a three nozzle overhead fungicide sprayer to near run-off. Alternatively, a single nozzle overhead track sprayer is used for application of the compounds to cereals at a rate of 200 liters/ha (l/ha). Plants are then allowed to air-dry.
(§4) 3. Inoculation precedes treatment in the case of curative evaluations and follows treatment in case of residual evaluations. For inoculation of powdery mildew disease, plants are set up on greenhouse benches with bottom watering mats and inoculated by dusting them with conidia from infected plants. Between inoculation and treatment for curative evaluations and between treatment and inoculation for residual evaluations, plants are maintained in the greenhouse with bottom watering. For inoculation of non-powdery mildew diseases, an aqueous spore suspension of the pathogen is applied to the plant and the plants are kept 1-2 days in a moist infection chamber before being returned to the greenhouse where they are maintained by bottom watering.
(§5) 4. Disease on the foliage as percent leaf area with disease symptoms/signs is evaluated about 7 days after inoculation. In the case of wheat, the tips and bases of the leaves are excluded from the evaluation. [formula]
(§6) 1. Technical compounds are formulated in a solvent/surfactant system consisting of 5% acetone and 0.05% Tween 20 in deionized water. Compounds are dissolved in acetone prior to addition of the water; the Tween 20 can be added through either the acetone or the water. Dilutions are made using the solvent/surfactant system. Formulated compounds are prepared using deionized water.
(§7) Assessments of the diseases took place at the indicated day after the application of the compounds. Per cent infected leaf area infected was evaluated. The efficacy of the compounds/compounds mixtures to control the diseases was calculated by using the formula given above under item 4: […]
(§8) Synergy of a fungicide mixture was determined by comparing the actual (observed) fungicidal activity of the mixture to the expected fungicidal activity of the mixture as calculated using the COLBY formula given hereinabove.

Assay [2] deals with Puccinia recondita on wheat. As to the kind of experiment: Greenhouse trial, 4 day residual, Puccinia recondita on wheat. To be noted: for Observed Efficacy / pest or weed control at 4 ppm / pest or weed control at 16 ppm / pest or weed control at 64 ppm / pest or weed control at 256 ppm: compound alone; for pest or weed control at 0.4 ppm / pest or weed control at 2 ppm / pest or weed control at 10 ppm / pest or weed control at 50 ppm / pest or weed control at 4 ppm / pest or weed control at 16 ppm / pest or weed control at 64 ppm / pest or weed control at 256 ppm: Puccinia recondita, 96 h, read-out: Observed Efficacy; for pest or weed control at 0.4 ppm / pest or weed control at 2 ppm / pest or weed control at 10 ppm / pest or weed control at 50 ppm: Table XV (Example 15), 4 day residual; for pest or weed control at 0.4 ppm: dose rate 0.4 ppm; for pest or weed control at 2 ppm: dose rate 2 ppm; for pest or weed control at 10 ppm: dose rate 10 ppm; for pest or weed control at 50 ppm: dose rate 50 ppm.
Source text: as §1, §2, §3, §4, §5, §6, §7, §8
Fungicidal Efficacy of the Mixture of BP-4+Other Fungicides (4 Day Residual) Against Puccinia recondita on Wheat
Fungicidal Efficacy of the Mixture of BP-4+Myclobutanil (4 Day Residual) Against Puccinia recondita on Wheat

For assay [3], the system named is Leptosphaeria nodorum on wheat. As to the kind of experiment: Greenhouse trial, 4 day residual, Leptosphaeria nodorum on wheat. The settings on record: for Observed Efficacy: Table VIII; for pest or weed control at 4 ppm / pest or weed control at 16 ppm / pest or weed control at 64 ppm / pest or weed control at 256 ppm: Parastagonospora nodorum, 96 h, read-out: Observed Efficacy.
Source text: as §1, §2, §3, §4, §5, §6, §7, §8
Fungicidal Efficacy of the Mixture of BP-4+Other Fungicides (4 Day Residual) Against Leptosphaeria nodorum on Wheat

[4] abbreviates: Table VI, compound alone, dose rate 4 ppm.
Where [5] appears, read: Table VI, compound alone, dose rate 16 ppm.
[6] abbreviates: Table VI, compound alone, dose rate 64 ppm.
[7] abbreviates: Table VI, compound alone, dose rate 256 ppm.
Setting [8] is: compound alone, dose rate 4 ppm.
[9] abbreviates: compound alone, dose rate 16 ppm.
The mark [10] stands for this setting: compound alone, dose rate 64 ppm.
The mark [11] stands for this setting: compound alone, dose rate 256 ppm.
[12] abbreviates: Golovinomyces cichoracearum, 96 h, Table XIV (Example 14), 4 day residual, dose rate 0.4 ppm, read-out: Observed Efficacy.
Setting [13] is: Golovinomyces cichoracearum, 96 h, Table XIV (Example 14), 4 day residual, dose rate 2 ppm, read-out: Observed Efficacy.
Setting [14] is: Golovinomyces cichoracearum, 96 h, Table XIV (Example 14), 4 day residual, dose rate 10 ppm, read-out: Observed Efficacy.
The mark [15] stands for this setting: Golovinomyces cichoracearum, 96 h, Table XIV (Example 14), 4 day residual, dose rate 50 ppm, read-out: Observed Efficacy.
Setting [16] is: Table X, compound alone, dose rate 64 ppm.
[17] abbreviates: Table X, compound alone, dose rate 256 ppm.
Setting [18] is: Golovinomyces cichoracearum, 96 h, Table XI, compound alone, dose rate 0.4 ppm, read-out: Observed Efficacy.
The mark [19] stands for this setting: Golovinomyces cichoracearum, 96 h, Table XI, compound alone, dose rate 2 ppm, read-out: Observed Efficacy.
The mark [20] stands for this setting: Golovinomyces cichoracearum, 96 h, Table XI, compound alone, dose rate 10 ppm, read-out: Observed Efficacy.
The mark [21] stands for this setting: Golovinomyces cichoracearum, 96 h, Table XI, compound alone, dose rate 50 ppm, read-out: Observed Efficacy.

Where two headings read alike, the source gives them in different places.

Regarding Mancozeb, the “Observed Efficacy” value in assay [1] (setting [4]) is on record as 0%; in assay [1] (setting [5]), 0%; in assay [1] (setting [6]), 1%; in assay [1] (setting [7]), 33%; in assay [2] (Table VII, dose rate 4 ppm), 0%; in assay [2] (Table VII, dose rate 16 ppm), 0%. Further, the “Observed Efficacy” value in assay [2] (Table VII, dose rate 64 ppm) is reported as 28%; in assay [2] (Table VII, dose rate 256 ppm), 91%; in assay [3] (setting [8]), 0%; in assay [3] (setting [9]), 21%; in assay [3] (setting [10]), 47%; in assay [3] (setting [11]), 69%.
Consider `CCCC(Cn1cncn1)c1ccc(Cl)cc1Cl` (stereo not shown) [Penconazole], for which the pest or weed control at 0.4 ppm in assay [1] (setting [12]) came out at 6%; in assay [2] it was 0%. Moreover, the pest or weed control at 2 ppm in assay [1] (setting [13]) amounted to 35%; in assay [2], 3%. Moreover, the pest or weed control at 10 ppm stood at 37% in assay [1] (setting [14]) and 10% in assay [2]. The pest or weed control at 50 ppm in assay [1] (setting [15]) was determined as 67%; in assay [2], 26%.
Take `CO/C=C(/C(=O)OC)c1ccccc1Oc1cc(Oc2ccccc2C#N)ncn1` [Azoxystrobin]: the “Observed Efficacy” value in assay [1] (setting [4]) was 78%; in assay [1] (setting [5]), 96%; in assay [1] (setting [6]) it was 100%; in assay [1] (setting [7]), 100%; in assay [3] (setting [8]) it was 84%; in assay [3] (setting [9]), 97%. The “Observed Efficacy” value in assay [3] (setting [10]) and in assay [3] (setting [11]) was 100% in each case.
Turning to `CSC(=O)c1cccc2nnsc12` [BION, acibenzolar], the “Observed Efficacy” value in assay [1] (setting [4]) came out at 0%; in assay [1] (setting [5]), 0%; in assay [1] (setting [6]) it was 0%; in assay [1] (setting [7]), 0%; in assay [2] (Table VII, dose rate 4 ppm), 0%; in assay [2] (Table VII, dose rate 16 ppm), 0%. In addition, the “Observed Efficacy” value in assay [2] (Table VII, dose rate 64 ppm) is on record as 0%; in assay [2] (Table VII, dose rate 256 ppm), 0%.
In the case of Ethirimol, the “Observed Efficacy” value in assay [1] (setting [4]) is recorded as 50%; in assay [1] (setting [5]) it was 83%; in assay [1] (setting [6]), 94%; in assay [1] (setting [7]), 100%; in assay [2] (Table VII, dose rate 16 ppm), 0%; in assay [2] (Table VII, dose rate 64 ppm), 0%. Besides, the “Observed Efficacy” value in assay [2] (Table VII, dose rate 256 ppm) was 0%.
Turning to `CCCCCCCCCCCCNC(=N)N` [Dodine], in assay [3], the pest or weed control at 4 ppm was found to be 0%, the pest or weed control at 16 ppm was 6%, the pest or weed control at 64 ppm worked out at 24% and the pest or weed control at 256 ppm turned out to be 59%.
Take `O=C1C2CC=CCC2C(=O)N1SC(Cl)(Cl)Cl` (stereo not shown) [Captan]: the pest or weed control at 4 ppm in assay [2] (Table IX, dose rate 4 ppm) was 4%. In assay [2] (Table IX, dose rate 16 ppm), the pest or weed control at 16 ppm was determined as 11%. The pest or weed control at 64 ppm in assay [2] (Table IX, dose rate 64 ppm) is 55%; in assay [3] (setting [16]), 84%. In addition, the pest or weed control at 256 ppm in assay [2] (Table IX, dose rate 256 ppm) is 89%; in assay [3] (setting [17]), 90%.
For `CC(C)(C)C(O)(CCc1ccc(Cl)cc1)Cn1cncn1` (stereo not shown) [Tebuconazole], the pest or weed control at 0.4 ppm in assay [1] (setting [18]) stood at 10%. In assay [1] (setting [19]), the pest or weed control at 2 ppm was determined as 45%. Further, the pest or weed control at 10 ppm in assay [1] (setting [20]) was found to be 79%. In addition, the pest or weed control at 50 ppm in assay [1] (setting [21]) was found to be 95%.
`C[C@@]1(c2ccc(Oc3ccccc3)cc2)OC(=O)N(Nc2ccccc2)C1=O` (racemic) [Famoxadone]: the pest or weed control at 4 ppm in assay [2] (Table IX, dose rate 4 ppm) was 45%; in assay [3] (Table X, compound alone, dose rate 4 ppm), 66%. The pest or weed control at 16 ppm was found to be 80% in assay [2] (Table IX, dose rate 16 ppm) and 69% in assay [3] (Table X, compound alone, dose rate 16 ppm). The pest or weed control at 64 ppm came out at 92% in assay [2] (Table IX, dose rate 64 ppm) and 80% in assay [3] (setting [16]). In addition, in assay [3] (setting [17]), the pest or weed control at 256 ppm amounted to 97%.
Regarding `CC(C)(C)C(O)C(Oc1ccc(Cl)cc1)n1cncn1` (stereo not shown) [Triadimenol], the pest or weed control at 0.4 ppm in assay [1] (setting [12]) and in assay [2] was 1% throughout. In addition, the pest or weed control at 2 ppm in assay [1] (setting [13]) and in assay [2] was 21% each time. The pest or weed control at 10 ppm is 45% in assay [1] (setting [14]) and 69% in assay [2]. For the same compound, the values for the pest or weed control at 50 ppm in assay [1] (setting [15]) and in assay [2] were 68% and 98%, respectively.
As for `Fc1ccc([C@]2(Cn3cncn3)O[C@H]2c2ccccc2Cl)cc1` (racemic) [Epoxiconazole], the pest or weed control at 0.4 ppm in assay [1] (setting [18]) came to 0%. In addition, the pest or weed control at 2 ppm in assay [1] (setting [19]) was found to be 46%. In addition, in assay [1] (setting [20]), the pest or weed control at 10 ppm was found to be 68%. The pest or weed control at 50 ppm in assay [1] (setting [21]) is 77%.
Take `N#Cc1c(Cl)c(Cl)c(Cl)c(C#N)c1Cl` [Chlorothalonil]: the pest or weed control at 4 ppm in assay [1] (Golovinomyces cichoracearum, 96 h, Table VI, compound alone, dose rate 4 ppm, read-out: Observed Efficacy) worked out at 0%; in assay [2] (Table VII, dose rate 4 ppm), 0%. Moreover, the pest or weed control at 16 ppm in assay [1] (Golovinomyces cichoracearum, 96 h, Table VI, compound alone, dose rate 16 ppm, read-out: Observed Efficacy) came to 0%; in assay [2] (Table VII, dose rate 16 ppm) it was 0%. Also, the pest or weed control at 64 ppm came out at 0% in assay [1] (Golovinomyces cichoracearum, 96 h, Table VI, compound alone, dose rate 64 ppm, read-out: Observed Efficacy) and 0% in assay [2] (Table VII, dose rate 64 ppm). Moreover, the pest or weed control at 256 ppm in assay [1] (Golovinomyces cichoracearum, 96 h, Table VI, compound alone, dose rate 256 ppm, read-out: Observed Efficacy) was determined as 1%; in assay [2] (Table VII, dose rate 256 ppm) it was 31%.
As for `CC(Oc1ccc(Cl)cc1Cl)C(=O)NC(C)(C#N)C(C)C` (stereo not shown) [AC 382042], the “Observed Efficacy” value in assay [1] (Table XI, compound alone, dose rate 0.4 ppm) is listed as 7%; in assay [1] (Table XI, compound alone, dose rate 2 ppm), 3%; in assay [1] (Table XI, compound alone, dose rate 10 ppm), 14%; in assay [1] (Table XI, compound alone, dose rate 50 ppm) it was 25%.
In the case of `O=[N+]([O-])c1cc(C(F)(F)F)c(Cl)c([N+](=O)[O-])c1Nc1ncc(C(F)(F)F)cc1Cl` [Fluazinam], the pest or weed control at 4 ppm in assay [2] (Table IX, dose rate 4 ppm) was found to be 0%. Further, the pest or weed control at 16 ppm in assay [2] (Table IX, dose rate 16 ppm) came out at 6%. Also, the pest or weed control at 64 ppm in assay [2] (Table IX, dose rate 64 ppm) was 22%; in assay [3] (setting [16]) it was 81%. In addition, the pest or weed control at 256 ppm came out at 80% in assay [2] (Table IX, dose rate 256 ppm) and 91% in assay [3] (setting [17]).
Take `COCC(=O)N(c1c(C)cccc1C)C(C)C(=O)OC` (stereo not shown) [Metalaxyl]: in assay [2] (Table IX, dose rate 64 ppm), the pest or weed control at 64 ppm stood at 0%. The pest or weed control at 256 ppm in assay [2] (Table IX, dose rate 256 ppm) was determined as 12%.
Take `N#Cc1c[nH]cc1-c1cccc(Cl)c1Cl` [Fenpiclonil]: the pest or weed control at 4 ppm in assay [2] (Table IX, dose rate 4 ppm) stood at 1%. In assay [2] (Table IX, dose rate 16 ppm), the pest or weed control at 16 ppm is 0%. The pest or weed control at 64 ppm in assay [2] (Table IX, dose rate 64 ppm) worked out at 18%. The pest or weed control at 256 ppm in assay [2] (Table IX, dose rate 256 ppm) was 58%.
